Several values for one entry are separate records, joined by “and”; a condition that tells them apart may be missing. Equal entries are not always repeated. Where two headings read alike, the source gives them in different places.
How the values were obtained:
[1] = system: rat tibialis electrically-induced twitches; test: Neuromuscular blocking activity in rats (sciatic nerve-tibialis twitch); type: in vivo; details: for Time for 100% Reversal / Time of onset of Reversal: after physostigmine; for ED50 (mmole/kg i.p.): dose producing 50% reduction of the rat tibialis twitch; for Duration of the Block / Time of 50% Block / Time of 90% Block / Time of onset of Block: rat tibialis twitches; for Effect of Physostigmine: reversal of block by physostigmine, single bolus
[2] = system: 4-day old chicks; test: Neuromuscular blocking activity in chicks (head drop, type of paralysis); type: in vivo, chick
Experimental: Adult male Wistar rats (250 g) and 4-day old chicks (50 g) were used to conduct the neuromuscular blocking activity evaluation. They were housed in cages and kept at a temperature of 20±2° C. and a relative humidity of 55±5% with a light-dark cycle of 12 h. The animals were provided with Purina rodent's chow pellets supplied by Grain silos and Flour Mills Organization, Riyadh, Saudi Arabia and had both food and water ad libitum. The chicks were bought from the local market in Riyadh. Male Wistar rats (250 g) were randomly divided into various groups (N=4-8 animals). The animals were prepared following modifications of the reported method (Henning, R. Br. J. Pharmacol. 1993, 108, 717-720; Thesleff, S. et al, J. Pharmacol. Expt. Ther. 1954, 111, 99-118). Test drugs, standards or vehicles were administered intraperitoneal dissolved in dimethyl sulfoxide, or water as appropriate in various doses 1-100 mg/kg. In all experiments a control group was included and received intraperitoneal injections of the test compounds' vehicle. […] Also the dose that produced 90% of twitches depression was calculated. The response of the muscle to titanic stimulation was tested before administration of any drug and following 90% inhibition of the twitches.
Intraperitoneal administration of compounds of the formula 1 in single doses ranged from of 0.15-0.3 mmoles/kg, induced flaccid paralysis of the chicks within 1-15 minutes. The paralysis started with head movement and drop; then complete flaccid paralysis occurred. The onset of head drops were ranged from 15 sec-11 minutes whereas the flaccid paralysis ranged from 1-15 minutes following administration. Atracurium and Succinylcholine were used as positive controls. The mechanism of action of compounds of the formula 1 was similar but with more rapid onset of action than that of Atracurium; and almost similar to that of Succinylcholine. Representative example is shown in Example 4.
The effects of GS-53 and the standard drugs Succinylcholine and Atracurium were administered to 4-day old chicks to confirm the mode of the neuromuscular blockade (Buttle, G. et al, J. Pharm. Pharmacol. 1949, 1, 991-992; Thesleff, S. et al, J. Pharmacol. Expt. Ther. 1954, 111, 99-118; ELTahir, K. Guide to Drug Discovery, 2008, Riyadh, KSA). […] Intraperitoneal administration of GS-53 in single dose of 0.15 mmoles/kg, induced flaccid paralysis of the chicks within one minute. The paralysis started with head movement and drop; then complete flaccid paralysis occurred. The onset of head drop was 15 sec whereas the flaccid paralysis was one minute following administration. Atracurium and Succinylcholine were used as positive controls. The mechanism of action GS-53 seemed to be similar but with more rapid onset of action than that of Atracurium; and almost similar to that of Succinylcholine (Table 2).

[3] = Determination of the lethal dose (LD50); details: male, mouse, in vivo, ip, male mice, intraperitoneal
Experimental: The LD50 values of compounds of formula 1 were performed. Compounds were given intraperitoneally in doses ranging from 0.1-5 mmole/kg. […] All behavioral changes and death during the observation periods were recorded. The percentage of death at each dose level was then calculated, and the LD50 values were obtained (Ghosh, M., Fundamentals of Experimental Pharmacology, Scientific Book Agency, Calcutta. 1984, pp 153-158, 187-189). The Therapeutic Index of each compound was calculated following the determination of the effective neuromuscular blocking dose. Representative example is shown in Example 5.
Male mice were divided into various groups and GS-53 was administered in various doses ranging from 0.1-5 mmole/kg, intraperitoneal. […] All behavioral changes and death during the observation periods were recorded.

[4] = literature classification, cited from earlier work; for Onset of action: following bolus i.v. administration
[5] = single dose of 0.15 mmoles/kg i.p.

Row | SMILES | Time for 100% Reversal [1] | Time of onset of Reversal [1] | ED50 (mmole/kg i.p.) ([1]; i.p.) | Duration of the Block ([1]; i.p.) | Time of 50% Block ([1]; i.p.) | Time of 90% Block ([1]; i.p.) | Time of onset of Block ([1]; i.p.) | Effect of Physostigmine [1] | ED50 (mmole/kg i.p.) ([2]; i.p.) | Mechanism of action ([2]; i.p.) | Onset of head drop ([2]; i.p.) | Onset of muscle relaxation ([2]; i.p.) | Type of neuromuscular paralysis ([2]; i.p.) | Onset of action [4] | Duration [4] | other results
1 | COc1ccc(CC2c3cc(OC)c(OC)cc3CC[N+]2(C)CCC(=O)OCCCCCOC(=O)CC[N+]2(C)CCc3cc(OC)c(OC)cc3C2Cc2ccc(OC)c(OC)c2)cc1OC (centres unmarked) [Atracurium] | 3 ± 0.4 min | 2.0 min | 0.016 mmol/kg | 30 ± 6 min | 8 ± 0.2 min | 12 ± 1.3 min | 5 ± 0.8 min | 100% Reversal | 0.016 mmol/kg | Competitive | 5 ± 0.8 min | 10 ± 0.8 min | Flaccid | – | – | –
2 | O=C1CCCN2N=C(c3ccc(Br)cc3)SC2=N1 [GS-53, (E)-2-(4-bromophenyl)-6,7-dihydro-[1,3,4]thiadiazolo[3,2-a][1,3]diazepin-8(5H)-one] | 6 ± 1.2 min | 1.0 min | 0.15 mmol/kg | 70 ± 12 min | 7 ± 0.6 min | 10 ± 3 min | 3 ± 0.9 min | completely reversed and 100% Reversal | 0.15 mmol/kg | Competitive | 0.25 ± 0.1 min | 1 ± 0.08 min | Flaccid | – | – | LD50 at 72 h ([3]; observation 72 hours, read-out: LD50): 195 mg/kg; LD50 at 72 h ([3]; read-out: LD50 95% confidence limits): 185 to 205 mg/kg; ED50 (mmole/kg i.p.), value in brackets in mg ([1]; i.p., rat tibialis twitch): 48.6 mg; Duration of action relative to Atracurium ([1]; rat, ratio of durations of block): 2.3 times; ED50 (mmole/kg i.p.), value in brackets in mg ([2]; i.p.): 48.6 mg/kg; Onset of flaccid paralysis [2, 5]: one; Onset of head drop [2, 5]: 0.25 min
3 | COc1cc2c(cc1OC)[C@H](c1cc(OC)c(OC)c(OC)c1)[N@@+](C)(CCCOC(=O)/C=C(\Cl)C(=O)OCCC[N@+]1(C)CCc3cc(OC)c(OC)cc3[C@H]1Cc1cc(OC)c(OC)c(OC)c1)CC2 [Gantacurium] | – | – | – | – | – | – | – | – | – | – | – | – | – | within a minute | 5 min | –
4 | C[N+](C)(C)CCOC(=O)CCC(=O)OCC[N+](C)(C)C [Succinylcholine] | – | – | 0.03 mmol/kg | 20 ± 1.8 min | 3 ± 0.1 min | 5 ± 0.2 min | 2 ± 0.1 min | No Reversal | 0.03 mmol/kg | Depolarizing | – | 0.5 ± 0.02 min | Spastic | within a minute | 5 min | –

— patent US8846665B2, “6,7-dihydro-[1,3,4]thiadiazolo-[3,2-a][1,3]diazepin derivative and pharmaceutical composition containing the same as neuromuscular blocker or skeletal muscle relaxant, and method for the preparation” (King Saud University, priority 2011, dated 2014)
